Entries after “also recorded” stand apart in the source; their conditions may differ.
What was measured:
[1] = Chemical stability in acidic and alkaline environments (TLC-monitored); format: physicochemical; conditions: TLC at 10 min, 1, 2, 3, 24, 48 h; for chemical stability in the acidic environment: 2 mg/mL in methanol + 10% HCl 1:1; for chemical stability in the alkaline environment: 2 mg/mL in methanol + 10% NaOH 1:1
Description: The chemical stability of the new organic selenocompounds was evaluated in two different environments (acidic and alkaline). Firstly, tested selenocompounds were dissolved in pure anhydrous methanol to obtain a stock solution with a concentration of 2 mg/mL. Then, the solution was divided into two equal parts. A 10% solution of HCl was added in 1:1 proportion to the first part, and a 10% solution of NaOH was added to the second part in the same 1:1 proportion. Then, the stability of the tested Se compounds, either in the acidic or in the basic conditions, was TLC-monitored at specific time periods: 10 min and 1, 2, 3, 24, and 48 h. The following eluents were used: (i) methylene chloride for EDA-26, EDA-73, EDA-74, EDA-93, EDA-109, EDA-119, EDA-120, and EDA-122; a mixture of n-hexane and ethyl acetate in a 4:1 ratio for EDA-58; (ii) chloroform for EDA-71 and EDA-A6; and (iii) acetone for EDA-117.
In the next step of the experiments, the chemical stability of 11 selenoesters (EDA-26, EDA-71, EDA-73, EDA-74, EDA-58, EDA-93, EDA-109, EDA-117, EDA-119, EDA-120 and EDA-122) and the selenoanhydride EDA-A6 in acidic and alkaline environments was evaluated by the use of a previously described method. Unfortunately, it was not possible to estimate the chemical stability of the compounds EDA-46, EDA-53, EDA-56, and […] due to their physicochemical properties: they were liquid at room temperature in the form of an oil, which is not miscible with water.

[2] = tested on: human liver microsomes (HLMs); assay: In vitro microsomal biotransformation test with TRIS buffer and solvent controls (LC-MS/MS); format: in vitro ADME; conditions: for stability in DMSO: organic solvent, LC-MS/MS
Description: The assessment of the metabolites generated in the in vitro microsomal biotransformation of the selenoester EDA-71 in liver microsomes was performed following a previously described protocol with minor modifications. Only this compound was evaluated because it combined an optimal solubility to be analyzed in this procedure with very significant activity. The protocol is provided in full detail in the Supplementary Materials. Briefly, the compound was exposed to microsomes for 2 h, and the mixture was later analyzed with LC–MS/MS to detect the generated metabolites.
In the next step of the research, a biochemical in vitro method with the use of human liver microsomes (HLMs) was applied to determine the metabolic activity of the compound EDA-71. This human liver microsomal model provides all the enzymes required for the phase I metabolism reactions (hydrolysis, oxidation, and reduction). Moreover, it is also possible, in certain conditions following the addition of all necessary cofactors, to conduct metabolism II phase reactions (glutathione transferase and N-acetyltransferase enzymatic reactions). In the drug discovery process, the microsomal is a standard in vitro method for the metabolism evaluation. Additionally, this assay can predict the biotransformation kinetics and intrinsic clearance of new derivatives. Finally, these biotransformation processes can be easily monitored with LC–MS/MS.
The NADPH-regenerating system, which contained a phosphate buffer (pH = 7.4; NADP^+, glucose-6-phosphate, and glucose-6-phosphate dehydrogenase), was used. The biotransformation process was monitored with the LC–MS/MS method at the end of the procedure at 2 h after the incubation.
This experimental fact prevented the detailed analysis of metabolic stability. […] Thus, the tested compounds were dissolved in DMSO immediately before the experiment to minimize the degradation risk. […]
1.4. In vitro metabolic stability evaluation in microsomes
1.4.1. Microsomal metabolic stability protocol
For the microsomal stability assay, the selenoester EDA-71 was selected. Before the experimental procedure, the HLMs and solutions necessary for preparing the regenera-tion fraction were stored at -80° C and TRIS buffer at 4° C. The NADP+ regeneration frac-tion was prepared freshly, at the day of the experiment.
1.4.2. Preparation of the working solutions and microsomal regeneration fraction In the first step of the experiment, after selection of the compounds, the 1000 μM working solution was prepared in the TRIS buffer (0.1 M, pH 7.5) from the 10 mM stocks in DMSO. Then, the fresh regeneration fraction was prepared from the 220 μL TRIS buffer, 25 μL of the “A” solution and 5 μL of the “B” solution.
1.4.3. Human liver microsomes and solvent controls
Further, two controls have been prepared: solvent control (142 μL of TRIS buffer with 8 μL of HLMs, 50 μL of the regeneration fraction and 200 μL of the pure methanol) and tested compound control (190 μL of TRIS buffer with 10 μL of the 1 mM tested compound solution and 200 μL of methanol). The biotransformation was carried out at the precise concentration of 1 mg/mL of HLMs.
1.4.4. Biotransformation performance
In the next step 132 μL of TRIS buffer were added into a sterile eppendorf. After that, 10 μL of 1000 μM solution of tested compound in TRIS buffer were added to the above-mentioned eppendorf and then, 8 μL of HLMs. The final concentration of tested com-pound was 50 μM. After gently mixing on the vortex, reaction mixture was preincubated for 5 minutes at 37° C on the thermoblock. Then, in the further step, the reaction was ini-tiated by adding 50 μL of the NADP+ regeneration fraction and incubated at 37° C for 2 h.
After that time, to terminate the reaction, the 200 μL of pure, cold methanol (for LC-MS/MS analysis) was added to probe, which contained the tested compound with HLMs.
Moreover, the same amount of cold methanol was added into the control sample with […]

Row | SMILES | chemical stability in the acidic environment [1] | chemical stability in the alkaline environment [1] | stability in DMSO [2] | stability in TRIS buffer and LC-MS/MS analysis conditions ([2]; TRIS buffer pH = 7.4, control of microsomal assay)
1 | COC(=O)C[Se]C(=O)c1cc(OC)c(OC)c(OC)c1 [EDA-26, methyl 2-((3,4,5-trimethoxybenzoyl)selanyl)acetate] | stable till the end of the analysis (48 h) | totally unstable |  | 
2 | COC(=O)C[Se]C(=O)c1cc(OC)cc(OC)c1 [EDA-58, methyl 2-((3,5-dimethoxybenzoyl)selanyl)acetate] |  |  | stable | 
3 | CC(=O)C[Se]C(=O)c1ccc(Cl)cc1 [EDA-71, Se-(2-oxopropyl) 4-chlorobenzoselenoate] | totally unstable | unstable | stable | may not be stable; also recorded: unstable
4 | CC(C)(C)C(=O)C[Se]C(=O)c1ccc(Cl)cc1 [EDA-73, Se-(3,3-dimethyl-2-oxobutyl) 4-chlorobenzoselenoate] | stable till the end of the experiment (48 h) | unstable |  | 
5 | COc1cc(OC)cc(C(=O)[Se]CC(=O)C(C)(C)C)c1 [EDA-74, Se-(3,3-dimethyl-2-oxobutyl) 3,5-dimethoxybenzoselenoate] | stable till the end of the experiment (48 h) | unstable |  | 
6 | O=C(C[Se]C(=O)c1ccccc1)Oc1ccccc1 [EDA-93, phenyl 2-(benzoylselanyl)acetate] | unstable | unstable |  | 
7 | C[Se]C(=O)c1ccc(C(=O)[Se]C)cc1 [EDA-109, Se,Se-dimethyl benzene-1,4-bis(carboselenoate)] | stable till the end of the analysis (48 h) | totally unstable |  | 
8 | C[Se]C(=O)c1cccc(C(=O)[Se]C)n1 [EDA-119, Se,Se-dimethyl pyridine-2,6-bis(carboselenoate)] |  |  | stable | 
9 | C[Se]C(=O)c1cccc(C(=O)[Se]C)c1 [EDA-120, Se,Se-dimethyl benzene-1,3-bis(carboselenoate)] | stable till the end of the analysis (48 h) | totally unstable |  | 
10 | C[Se]C(=O)c1ccc(C(=O)[Se]C)s1 [EDA-122, Se,Se-dimethyl thiophene-2,5-bis(carboselenoate)] |  |  | stable | 
11 | O=C1[Se]C(=O)c2ccccc21 [EDA-A6, benzo[c]selenophene-1,3-dione] |  | unstable | stable | 
